Results as given in patent US11478433B2, “Nanomaterials with enhanced drug delivery efficiency” (Yale University, priority 2017, dated 2022).
Values belong to the compound of their own block, whether it stands above or below them.

Tests used:
[1] = in vivo, cited from earlier work
[2] = Penetration through GI tract after oral gavage (IVIS, confocal microscopy)
Experimental: DTA SNPs encapsulating a near-infrared fluorescent dye, IR780, were prepared and administered to mice via oral gavage. After one hour, the GI tract was isolated, extensively washed, and imaged by IVIS®.

[3] = test system: MDA-MB-231 flank tumor model; test: Intravenous treatment of flank tumor model with PTX-loaded OA SNPs; assay type: in vivo; conditions: over 30 days following treatment
Experimental: Next, drug delivery via encapsulation in OA SNPs was assayed in treating the flank tumor model.

[4] = test system: human breast cancer MDA-MB-231 cells; test: Toxicity on breast cancer cells in vitro; assay type: cell-based
Experimental: FIG. 7 is a line graph showing the percentage of growth (%) of human breast cancer MDA-MB-231 cells over different concentrations (μg/mL) of different samples: PTX, DTA SNPs (denoted in this graph as SNPs), PTX-encapsulated DTA SNPs (denoted as PTX-SNPs).
Human breast adenocarcinoma cell line, MDA-MB-231 cells, were purchased from American Type Culture Collection (ATCC, Rockville, Md., USA). Cells were grown in DMEM medium (Invitrogen) supplemented with 10% fetal bovine serum (FBS, Invitrogen), 100 units/mL penicillin, and 100 µg/mL streptomycin (Invitrogen) in a 37° C. incubator containing 5% CO2.

MDA-MB-231 tumors = test: Oral treatment of mice bearing MDA-MB-231 tumors; assay type: in vivo; conditions: twice a week
Experimental: The therapeutic benefit of PTX-loaded DTX SNPs was evaluated for treatment of […]. Mice bearing MDA-MB-231 tumors of ˜50 mm^3 size were treated twice a week with orally injected saline (as a control), empty DTA SNPs, free PTX, or PTX-loaded DTX SNPs (denoted as PTX-SNPs). Tumor volumes were measured three times a week. Mice were euthanized when tumor volume reached ˜1000 mm^3, at which point the tumors were excised and fixed in formalin for immunohistochemistry. Serial sections were obtained and stained with TUNEL for analysis of cellular apoptosis. The growth curve was plotted using the mean of the tumor volumes for each treatment group, at each time point.

Compound: C[C@@H]1CC[C@H]2[C@@H](C)C(=O)O[C@@H]3O[C@@]4(C)CC[C@@H]1[C@]32OO4 [Artemisinin, artemisinin]
- bioavailability [1]: less than 10%

- location in GI tract ([2]; one hour after oral gavage, IR780, IVIS imaging): located mostly in the stomach
Compound: CCCN1/C(=C/C=C2\CCCC(/C=C/C3=[N+](CCC)c4ccccc4C3(C)C)=C2Cl)C(C)(C)c2ccccc21.[I-] [IR780]

Compound: CC(=O)O[C@H]1C(=O)[C@@]2(C)[C@H]([C@H](OC(=O)c3ccccc3)[C@]3(O)C[C@H](OC(=O)[C@H](O)[C@@H](NC(=O)c4ccccc4)c4ccccc4)C(C)=C1C3(C)C)[C@]1(OC(C)=O)CO[C@@H]1C[C@@H]2O [PTX, paclitaxel]
- tumor volume / tumor growth [3]: grew substantially
- toxicity on MDA-MB-231 cells [4]: comparable toxicity
- oral bioavailability ([1]; po): less than 2%
- reduction of tumor volumes compared to saline control (MDA-MB-231 tumors): 21%

- fluorescence in intestinal villi ([2]; oral administration, confocal microscopy): limited fluorescence
Compound: CCN(CC)c1ccc2c(-c3ccccc3C(=O)O)c3ccc(=[N+](CC)CC)cc-3oc2c1.[Cl-] [rhodamine B]

Compound: GLP-1
- half-life in the circulatory system [1]: < 2 min
